Molecules are shown by their SMILES. “Also recorded” adds a separate entry of the source.

The values below come from US7968575B2, “Nitric oxide donors and uses thereof” (priority 2004, dated 2011).

Experiment [1] relates to isolated rat aorta. Description: In vitro vasorelaxation of epinephrine-contracted rat aortic rings (cumulative concentration-response curves). It is filed as cell-based. The conditions noted are these: isolated rat aorta pre-treated in vitro with 1 μM epinephrine; in words. The source says:
Male Sprague Dawley rats were anaesthetized using intraperitoneal injection of ketamine and xylazine (50 and 10 milligram per kilogram, respectively) and the thoracic aorta, the large upper portion of the descending aorta, starting at the caudal border of the chest bone, was removed thereafter, while carefully removing the paraadventetial tissue surrounding the vessel. Aortae were cut into rings of 4-5 millimeters and mounted onto the tissue path. The path buffer (Krebs-bicrbonate) was constantly gassed with carbogen and maintained at 37° C. The rings were preloaded under 2 g tension and equilibrated for 90 minutes, while refreshing the buffer every 15 minutes. After stabilization, the rings were contracted with epinephrine (1 μM). Cumulative Concentration-Response Curves (CCRC) were measured for the vasorelaxing effect induced by adding various concentrations, ranging from 10^−10 M to 10^−5 M of Pet-2, Pet-3, Pet-7, Pet-8, Pet-12, Pet-24, Pet-43, Pet-59, Pet-147, Pet-152 and Pet-154, and glyceryltrinitrate (GTN), according to the procedure described in Feelich et al., Molecular Pharmacology, 56:243-253 (1999). The vehicle, which was used for this experiment was water:ethanol:propyleneglycol at proportional ratio of 1:1:1.
The vasorelaxing effect of the thiazole-derived NO-donors according to the present invention was measured on slices of thoracic aorta of rats contracted with epinephrine, as described hereinabove.

Experiment [2] relates to c-GMP. Description: Cyclic-GMP measurement in aortic rat tissue (radioimmunoassay). The conditions noted are these: isolated rat aorta, FIGS. 25, 27 and 33; in words. Format: cell-based. The method, then:
GTN (10^−6 M) was added to the chamber and, 1 minute after exposure to the drug, rings (usually 3-5) were taken, wrapped with aluminum foil and immediately frozen in liquid nitrogen for storage. Control sample group was treated with the vehicle solution only. At the time of analysis, rings were thawed, blotted over a dry gauzed and weighted. A known weight of tissue was homogenized in 2 ml ice-cold modified Hank's balanced salt solution containing (in gram/liter) NaCl 8; KCl 0.4; glucose 1; KH2PO4 0.06; Na2HPO4 0.047; Phenol red 0.017 and further containing 25 mM EDTA (disodium salt). The homogenate was centrifuged at 4000 g (force units) for 10 minutes at 2-4° C. and the supernatant was thereafter transferred into fresh pre-cooled test tube containing 1 ml of acetonitrile. The tubes were vortex mixed for a few seconds and subsequently centrifuged at 4000 g for 5 minutes at 2-4° C., to remove the precipitated protein. Each supernatant was transferred into a clean test tube and evaporated to dryness under a stream of nitrogen at 55° C. The dry residue was reconstituted with 10 volumes of Tris-EDTA buffer pH 7.5 (0.05 M Tris containing 4 mM EDTA). Aliquots of 100 μl of the reconstituted solution in duplicate were used for c-GMP measurements using Amersham RIA kit, as is described in Haj-Yehia & Benet [Pharmacology, 1995, 273, 1, pp. 94-100]. Standard curves were plotted with six concentrations (0, 0.5, 1, 2, 4 and 8 pmoles of c-GMP per tube).
The NO-tolerance effect of GTN and NO-donor compounds according to the present invention was measured by following the production of c-GMP in slices of thoracic aorta of rats. Thus, the production of c-GMP was measured as described in the methods section above for the reference NO-donor compound GTN, and for the NO-donors of the present invention Pet-2, Pet-3, Pet-7, Pet-8, Pet-10, Pet-12, Pet-24, Pet-59, Pet-147, Pet-149, Pet-152, Pet-154 and Pet-155.

In experiment [3] the test system is c-GMP. Description: Induction of in vivo nitrate tolerance (cGMP in aorta isolated after 16 hour infusion). Also noted: species or system rat. The conditions noted are these: in words; for tolerance induction in vivo: cGMP accumulation in isolated aorta of rats pre-treated in vivo with the compound. On the procedure: For c-GMP levels and tolerance development, the rat's thoracic aorta was isolated after exposure to the tested compound in vivo, and measured as described above in the in vitro assays.
Male Sprague Dawley rats (220 to 250 grams) were housed under constant temperature and humidity conditions. Light was maintained at a 12/12 light dark cycle. Except for 12 hours before the experiment, when food fasting was initiated, all rats had free access to standard rat pellet diet and tap water. The animals were anesthetized by intraperitoneal injection of ketamine and xylazine combination (50 and 10 milligram per kilogram, respectively). […] The catheters were filled with normal saline solution containing 1000 IU/ml of heparin and plugged with a metal pin. Catheters were externalized to the back of the neck region and secured by a polyester felt disk.
After implantation, the rats were individually housed until they regained their preoperative weight and appeared healthy (3 to 4 days post-operation). At this time point (day 0), an osmotic mini-pump (Alza Corp., Palo Alto, Calif.) delivering constant volume (10 μl/hour) of vehicle or drug was connected to one of the intravenous catheters.
For inducing tolerance to the tested NO-donor according to the present invention, the animals received 200 μg/hour of the tested compound for 16 hours (short-term-induced tolerance). A similar number of animals were processed by the same surgical procedure and received the vehicle alone (10 μl/hour of a solution consisting of 30% ethanol and 30% propylene glycol in sterile distilled water for injection).
At the end of the infusion periods used for the development of tolerance (16 hour), the rats were anesthetized as described above, the two catheters were externalized and the delivering catheters were disconnected from the mini-pump. The abdomen was opened by midline incision and the thoracic aorta were isolated, washed and cleaned from the surrounding tissues. Strips of the treated aortas were pooled in chambers containing Krebs-Hanseliet buffer (10 ml), and exposed to 1 μM of the tested NO-donor (final concentration) for 120 seconds. The tissues were quickly collected and frozen in liquid nitrogen for cGMP measurement, described hereinabove.

Experiment [4] relates to isolated rat aorta. Kind of experiment: In vitro induction of tolerance: vasorelaxation of aortic rings pre-exposed to the NO-releasing compound. As to conditions: vasorelaxation in rings pre-treated with 0.44 mM of the compound versus control rings; in words. Format: cell-based. The method, then: Aortic rings were prepared as described hereinabove, and were exposed to 0.44 mM GTN (vehicle was water:ethanol:propyleneglycol at proportional ratio of 1:1:1) for 1 hour before CCRC construction, to thereby induce tolerance to nitroglycerine. At the end of the tolerance induction period, rings were thrice washed with the path buffer (Krebs-bicrbonate) every 15 minutes for the following hour and then CCRC for vasorelaxation on GTN-induced tolerance rings were constructed for GTN (pretreated versus untreated rings, FIG. 15), in order to verify the ability to induce and measure GTN tolerance induction in vitro
Attempted induction of tolerance to the NO-donating compounds of the present invention was performed under the same conditions as for GTN. Thus, in an exemplary experiment, rings were exposed to 0.44 mM solution of Pet-3 in the attempt to induce tolerance for Pet-3. CCRC were then measured for the vasorelaxing effect of Pet-3 on a group of rings which were pre-exposed to Pet-3 as to induce tolerance to Pet-3, and for an untreated control group. The above protocol was repeated with Pet-2, Pet-7, Pet-8, Pet-12, Pet-24, Pet-43, Pet-149 and Pet-152.

Experiment [5] concerns isolated rat aorta. Kind of experiment: Cross-tolerance studies on aortic rings (GTN / Pet-12 pre-treatment). Format: cell-based. As to conditions: in words. The method, then: Cross-tolerance studies were conducted using the same technique described above for measuring vasorelaxation of aortic rings from rats. Two groups of aortic rings samples were pre-treated with GTN, then one group was measured for vasorelaxation by GTN and the second group for vasorelaxation by Pet-12, an exemplary NO-donor according to the present invention. For the opposite cross-tolerance studies, two groups of aortic rings samples were pre-treated with Pet-12, then one group was measured for vasorelaxation by GTN and the second group for vasorelaxation by Pet-12.

In the case of `Cc1nc(NC(=O)[C@@H](C)c2ccc(CC(C)C)cc2)sc1CCO[N+](=O)[O-]` (stereo in doubt) [Pet-152, 2-(4-Isobutyl-phenyl)-N-[4-methyl-5-(2-nitrooxy-ethyl)-thiazol-2-yl]-propionamide], the “vasorelaxation effect as compared with glyceryltrinitrate” value in experiment [1] is listed as “superior”. In experiment [2], the “levels of cGMP as compared with GTN” value was “increased levels of cGMP”.
On to `CCc1nc(C)c(CCO[N+](=O)[O-])s1` [Pet-2, 2-Ethyl-4-methyl-5-(2-nitrooxy-ethyl)-thiazole], for which, in experiment [1], the “vasorelaxation effect as compared with glyceryltrinitrate” value is recorded as “superior”. In addition, in experiment [3] (aorta of rats infused 200 μg/hour for 16 hours, then exposed to 1 μM compound for 120 seconds), the “level of cGMP following a repeated treatment in vivo” value is listed as “remained substantially unchanged”. The “tolerance induction in vivo” value in experiment [3] is “absence of tolerance induction; also recorded: absence of tolerance effect”.
Take `Cc1nc(C)c(CCO[N+](=O)[O-])s1` [Pet-3, 2,4-Dimethyl-5-(2-nitrooxy-ethyl)-thiazole]: in experiment [1], the “vasorelaxation effect as compared with glyceryltrinitrate” value was “superior”. In experiment [4], the “tolerance induction in vitro” value is “absence of tolerance induction”. Besides, the “levels of cGMP as compared with GTN” value in experiment [2] is “increased levels of cGMP”.
In the case of `Cc1nc(N(C)C)sc1CCO[N+](=O)[O-]` [Pet-7, Dimethyl-[4-methyl-5-(2-nitrooxy-ethyl)-thiazol-2-yl]-amine], the “tolerance induction in vitro” value in experiment [4] was “absence of tolerance induction”. Further, the “levels of cGMP as compared with GTN” value in experiment [2] was “increased levels of cGMP”.
Take `Cc1nc(-c2ccccc2)sc1CCO[N+](=O)[O-]` [Pet-8, 4-Methyl-5-(2-nitrooxy-ethyl)-2-phenyl-thiazole]: in experiment [1], the “vasorelaxation effect as compared with glyceryltrinitrate” value was “superior”. In addition, the “levels of cGMP as compared with GTN” value in experiment [2] is recorded as “increased levels of cGMP”.
Take `Cc1nc(N)sc1CCO[N+](=O)[O-]` [Pet-10, 4-methyl-5-(2-nitrooxy-ethyl)-thiazole-2-ylamine]: the “levels of cGMP as compared with GTN” value in experiment [2] is reported as “increased levels of cGMP”.
Consider `Cc1nc(-c2cccnc2)sc1CCO[N+](=O)[O-]` [Pet-12, 3-[4-Methyl-5-(2-nitrooxy-ethyl)-thiazole-2-yl]-pyridine], for which, in experiment [4], the “tolerance induction in vitro” value is given as “absence of tolerance induction”. For the same compound, in experiment [5] (aortic rings pre-treated with epinephrine and then with GTN), the “vasorelaxation in GTN-tolerant rings (cross-tolerance)” value is listed as “absence of tolerance induction effect; also recorded: has no effect on the vasorelaxation capacity”. Further, in experiment [5] (aortic rings pre-treated with epinephrine and then with Pet-12), the “tolerance after pre-treatment with Pet-12 (to itself and to GTN)” value is recorded as “absence of tolerance induction effect; also recorded: does not evoke tolerance to itself not to GTN”. The “tolerance induction in vivo” value in experiment [3] is on record as “absence of tolerance induction; also recorded: absence of tolerance effect; also recorded: lack of tolerance induction”.
For the compound `CNc1cncc(-c2nc(C)c(CCO[N+](=O)[O-])s2)n1` [Pet-24, Methyl-{6-[4-methyl-5-(2-nitrooxy-ethyl)-thiazol-2-yl]-pyrazin-2-yl}-amine], the “tolerance induction in vitro” value in experiment [4] is reported as “absence of tolerance induction”. Moreover, the “levels of cGMP as compared with GTN” value in experiment [2] is reported as “increased levels of cGMP”.
Consider `Cc1nc(Nc2nc(C)c(CCO[N+](=O)[O-])s2)sc1CCO[N+](=O)[O-]` [Pet-43, Bis-[4-methyl-5-(2-nitrooxy-ethyl)-thiazol-2-yl]-amine], for which the “vasorelaxation effect as compared with glyceryltrinitrate” value in experiment [1] is “superior”. Besides, the “tolerance induction in vitro” value in experiment [4] was “absence of tolerance induction”.
In the case of `Cc1nc(-c2ccc(C(F)(F)F)cc2)sc1CCO[N+](=O)[O-]` [Pet-59, 4-Methyl-5-(2-nitrooxy-ethyl)-2-(4-trifluoromethyl-phenyl)-thiazole], the “vasorelaxation effect as compared with glyceryltrinitrate” value in experiment [1] is “superior”. Besides, the “levels of cGMP as compared with GTN” value in experiment [2] was “increased levels of cGMP”.
As for `CCNc1nc(C)c(CCO[N+](=O)[O-])s1` [Pet-147, Ethyl-[4-methyl-5-(2-nitrooxy-ethyl)-thiazol-2-yl]-amine], the “levels of cGMP as compared with GTN” value in experiment [2] is listed as “increased levels of cGMP”.
For `Cc1nc(Nc2cccc3ccccc23)sc1CCO[N+](=O)[O-]` [Pet-149, [4-Methyl-5-(2-nitrooxy-ethyl)-thiazol-2-yl]-naphthalen-1-yl-amine], the “vasorelaxation effect as compared with glyceryltrinitrate” value in experiment [1] was “superior”. The “tolerance induction in vitro” value in experiment [4] is on record as “absence of tolerance induction”. The “levels of cGMP as compared with GTN” value in experiment [2] is given as “increased levels of cGMP”.
Take `Cc1nc(NC(=O)c2cccnc2)sc1CCO[N+](=O)[O-]` [Pet-154, N-[4-methyl-5-(2-nitrooxy-ethyl)-thiazol-2-yl]-nicotinamide]: the “levels of cGMP as compared with GTN” value in experiment [2] is given as “increased levels of cGMP”.
As to `C=CCNc1nc(C)c(CCO[N+](=O)[O-])s1` [Pet-155, allyl-[4-methyl-5-(2-nitrooxy-ethyl)-thiazol-2-yl]-amine], the “vasorelaxation effect as compared with glyceryltrinitrate” value in experiment [1] is “superior”. In addition, in experiment [2], the “levels of cGMP as compared with GTN” value is “increased levels of cGMP”.
